Key:
[1] = tested on: Surinam grass; test: Test B pre-/postemergence herbicide test; assay type: in vivo, Urochloa decumbens
Summary of the method: (§1)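 Flooded paddy rice and barnyardgrass were treated at the 2-leaf stage; upland plantings received compound either on sown seed or on 1- to 4-leaf seedlings. All were kept 13–15 days in a greenhouse and scored visually, 0–100, relative to untreated plants.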

[2] = tested on: corn; test: Test B pre-/postemergence herbicide test; assay type: in vivo, Zea mays
Summary of the method: as §1

[3] = tested on: large crabgrass; test: Test B pre-/postemergence herbicide test; assay type: in vivo, Digitaria sanguinalis
Summary of the method: as §1

[4] = tested on: giant foxtail; test: Test B pre-/postemergence herbicide test; assay type: in vivo, Setaria faberi
Summary of the method: as §1

[5] = tested on: lambsquarters; test: Test B pre-/postemergence herbicide test; assay type: in vivo, Chenopodium album
Summary of the method: as §1

[6] = tested on: morningglory; test: Test B pre-/postemergence herbicide test; assay type: in vivo, Ipomoea coccinea
Summary of the method: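 Species tested were Echinochloa crus-galli, Ipomoea coccinea, Xanthium strumarium and Oryza sativa, treated both before emergence and at the 1- to 4-leaf stage; rice and barnyardgrass were also tested under flooding at 2 leaves. Greenhouse incubation lasted 13–15 days before visual 0–100 scoring.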

[7] = tested on: pigweed; test: Test B pre-/postemergence herbicide test; assay type: in vivo, Amaranthus retroflexus
Summary of the method: as §1

[8] = tested on: velvetleaf; test: Test B pre-/postemergence herbicide test; assay type: in vivo, Abutilon theophrasti
Summary of the method: as §1

[9] = tested on: blackgrass; test: Test B postemergence herbicide test; assay type: in vivo, Alopecurus myosuroides
Summary of the method: (§2)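 Plants grow to 1- to 4-leaf stage (2–18 cm) for postemergence spraying, or to 2-leaf stage for the paddy test. Formulated compound is applied. Greenhouse holding lasts 13–15 days. Response is scored visually relative to controls, 0 no effect to 100 complete control; a dash means no result.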

[10] = tested on: wheat; test: Test B postemergence herbicide test; assay type: in vivo, Triticum aestivum; design: key to Wheat plant response rating: 0 = no effect, 100 = complete control
Summary of the method: (§3)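 Visual ratings, 0 (no effect) to 100 (complete control), made versus controls after 13–15 d greenhouse. Paddy plants treated at 2-leaf stage; postemergence plants at 1- to 4-leaf stage, 2–18 cm tall.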

[11] = tested on: wild oat; test: Test B postemergence herbicide test; assay type: in vivo, Avena fatua
Summary of the method: as §3

[12] = tested on: rice; test: Test B flooded paddy test; assay type: in vivo, Oryza sativa; settings: 1000 g ai/ha, scale 0 to 100 (0 no effect, 100 complete control)
Summary of the method: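 After treating 2-leaf paddy plants or 2–18 cm postemergence plants (1 to 4 leaves) with formulated chemical, researchers kept them in a greenhouse for 13–15 days. Effects were judged visually versus controls: 0 indicates none, 100 total control.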

[13] = tested on: small flower umbrella sedge; test: Test B flooded paddy test; assay type: in vivo, Cyperus difformis; settings: 1000 g ai/ha, scale 0 to 100 (0 no effect, 100 complete control)
Summary of the method: as §2

[14] = tested on: ducksalad; test: Test B flooded paddy test; assay type: in vivo, Heteranthera limosa; settings: 1000 g ai/ha, scale 0 to 100 (0 no effect, 100 complete control)
Summary of the method: as §2

[15] = tested on: barnyardgrass; test: Test B flooded paddy test; assay type: in vivo, Echinochloa crus-galli; settings: 1000 g ai/ha, scale 0 to 100 (0 no effect, 100 complete control)
Summary of the method: as §2

[16] = 125 g ai/ha; 0 = no effect, 100 = complete control; preemergence
[17] = 500 g ai/ha; visual rating, 0 = no effect, 100 = complete control; preemergence
[18] = postemergence, 125 g ai/ha; visual rating, scale 0 (no effect) to 100 (complete control)
[19] = postemergence, 500 g ai/ha; scale 0 to 100, 0 is no effect, 100 is complete control
[20] = 125 g ai/ha; visual rating, scale 0 (no effect) to 100 (complete control); postemergence

CCNC(=O)c1ccc(F)c(NC(=O)c2cc(C(C)(C)C)nn2CC)n1 [Compound 278]
Surinam Grass plant response rating (0 to 100 scale) [1, 16]: 20 | Plant response rating, Surinam Grass [1, 17]: 60 | Surinam Grass plant response rating [1, 18]: 10 | Surinam Grass plant response rating [1, 19]: 10 | Corn plant response rating (0 to 100 scale) [2, 16]: 0 | Plant response rating, Corn [2, 17]: 20 | Corn plant response rating [2, 18]: 10 | Corn plant response rating [2, 19]: 20 | Crabgrass, Large plant response rating (0 to 100 scale) [3, 16]: 20 | Plant response rating, Crabgrass, Large [3, 17]: 80 | Crabgrass, Large plant response rating [3, 18]: 0 | Crabgrass, Large plant response rating [3, 19]: 10 | Foxtail, Giant plant response rating (0 to 100 scale) [4, 16]: 20 | Plant response rating, Foxtail, Giant [4, 17]: 80 | Foxtail, Giant plant response rating [4, 18]: 0 | Foxtail, Giant plant response rating [4, 19]: 10 | Lambsquarters plant response rating (0 to 100 scale) [5, 16]: 100 | Plant response rating, Lambsquarters [5, 17]: 100 | Lambsquarters plant response rating [5, 18]: 20 | Lambsquarters plant response rating [5, 19]: 30 | Morningglory plant response rating (0 to 100 scale) [6, 16]: 0 | Plant response rating, Morningglory [6, 17]: 10 | Morningglory plant response rating [6, 18]: 0 | Morningglory plant response rating [6, 19]: 20 | Pigweed plant response rating (0 to 100 scale) [7, 16]: 100 | Plant response rating, Pigweed [7, 17]: 100 | Pigweed plant response rating [7, 18]: 10 | Pigweed plant response rating [7, 19]: 40 | Velvetleaf plant response rating (0 to 100 scale) [8, 16]: 0 | Plant response rating, Velvetleaf [8, 17]: 60 | Velvetleaf plant response rating [8, 18]: 10 | Velvetleaf plant response rating [8, 19]: 10 | Blackgrass plant response rating [9, 18]: 20 | Blackgrass plant response rating [9, 19]: 30 | Wheat plant response rating [10, 18]: 30 | Wheat plant response rating [10, 19]: 30 | Oat, Wild plant response rating [11, 18]: 20 | Oat, Wild plant response rating [11, 19]: 30 | Rice plant response rating [12]: 60 | Sedge, Umbrella plant response rating [13]: 70 | Ducksalad plant response rating [14]: 80 | Barnyardgrass plant response rating [15]: 60

CCn1nc(C(C)(C)C)cc1C(=O)Nc1nc(C(=O)N2CC=CC2)ccc1F [Compound 281]
Surinam Grass plant response rating (0 to 100 scale) [1, 16]: 10 | Plant response rating, Surinam Grass [1, 17]: 40 | Surinam Grass plant response rating [1, 18]: 10 | Surinam Grass plant response rating [1, 19]: 20 | Corn plant response rating (0 to 100 scale) [2, 16]: 0 | Plant response rating, Corn [2, 17]: 0 | Corn plant response rating [2, 18]: 0 | Corn plant response rating [2, 19]: 10 | Crabgrass, Large plant response rating (0 to 100 scale) [3, 16]: 10 | Plant response rating, Crabgrass, Large [3, 17]: 70 | Crabgrass, Large plant response rating [3, 18]: 10 | Crabgrass, Large plant response rating [3, 19]: 10 | Foxtail, Giant plant response rating (0 to 100 scale) [4, 16]: 10 | Plant response rating, Foxtail, Giant [4, 17]: 60 | Foxtail, Giant plant response rating [4, 18]: 10 | Foxtail, Giant plant response rating [4, 19]: 10 | Lambsquarters plant response rating (0 to 100 scale) [5, 16]: 90 | Plant response rating, Lambsquarters [5, 17]: 100 | Lambsquarters plant response rating [5, 18]: 20 | Lambsquarters plant response rating [5, 19]: 30 | Morningglory plant response rating (0 to 100 scale) [6, 16]: 0 | Plant response rating, Morningglory [6, 17]: 20 | Morningglory plant response rating [6, 18]: 0 | Morningglory plant response rating [6, 19]: 10 | Pigweed plant response rating (0 to 100 scale) [7, 16]: 100 | Plant response rating, Pigweed [7, 17]: 100 | Pigweed plant response rating [7, 18]: 20 | Pigweed plant response rating [7, 19]: 30 | Velvetleaf plant response rating (0 to 100 scale) [8, 16]: 10 | Plant response rating, Velvetleaf [8, 17]: 70 | Velvetleaf plant response rating [8, 18]: 0 | Velvetleaf plant response rating [8, 19]: 20 | Blackgrass plant response rating [9, 18]: 20 | Blackgrass plant response rating [9, 19]: 30 | Wheat plant response rating [10, 18]: 30 | Wheat plant response rating [10, 19]: 30 | Oat, Wild plant response rating [11, 18]: 10 | Oat, Wild plant response rating [11, 19]: 20 | Rice plant response rating [12]: 70 | Sedge, Umbrella plant response rating [13]: 70 | Ducksalad plant response rating [14]: 80 | Barnyardgrass plant response rating [15]: 70

C#CCNC(=O)c1cc(NC(=O)c2cc(C(C)(C)C)nn2CC)ccn1 [Compound 283]
Surinam Grass plant response rating (0 to 100 scale) [1, 16]: 0 | Plant response rating, Surinam Grass [1, 17]: 0 | Surinam Grass plant response rating [1, 18]: 0 | Surinam Grass plant response rating [1, 19]: 10 | Plant response rating, Corn [2, 17]: 0 | Corn plant response rating [2, 18]: 0 | Corn plant response rating [2, 19]: 10 | Crabgrass, Large plant response rating (0 to 100 scale) [3, 16]: 0 | Plant response rating, Crabgrass, Large [3, 17]: 50 | Crabgrass, Large plant response rating [3, 18]: 0 | Crabgrass, Large plant response rating [3, 19]: 10 | Foxtail, Giant plant response rating (0 to 100 scale) [4, 16]: 0 | Plant response rating, Foxtail, Giant [4, 17]: 10 | Foxtail, Giant plant response rating [4, 18]: 0 | Foxtail, Giant plant response rating [4, 19]: 0 | Lambsquarters plant response rating (0 to 100 scale) [5, 16]: 0 | Plant response rating, Lambsquarters [5, 17]: 100 | Lambsquarters plant response rating [5, 18]: 0 | Lambsquarters plant response rating [5, 19]: 30 | Morningglory plant response rating (0 to 100 scale) [6, 16]: 0 | Plant response rating, Morningglory [6, 17]: 0 | Morningglory plant response rating [6, 18]: 0 | Morningglory plant response rating [6, 19]: 30 | Pigweed plant response rating (0 to 100 scale) [7, 16]: 0 | Plant response rating, Pigweed [7, 17]: 100 | Pigweed plant response rating [7, 18]: 0 | Pigweed plant response rating [7, 19]: 20 | Velvetleaf plant response rating (0 to 100 scale) [8, 16]: 0 | Plant response rating, Velvetleaf [8, 17]: 0 | Velvetleaf plant response rating [8, 18]: 0 | Velvetleaf plant response rating [8, 19]: 0 | Blackgrass plant response rating [9, 18]: 20 | Blackgrass plant response rating [9, 19]: 40 | Wheat plant response rating [10, 18]: 20 | Wheat plant response rating [10, 19]: 20 | Oat, Wild plant response rating [11, 18]: 0 | Oat, Wild plant response rating [11, 19]: 10 | Rice plant response rating [12]: 10 | Sedge, Umbrella plant response rating [13]: 80 | Ducksalad plant response rating [14]: 70 | Barnyardgrass plant response rating [15]: 20

CCn1nc(C(C)(C)C)cc1C(=O)Nc1cncc(C(=O)N2CC=CC2)n1 [Compound 290]
Surinam Grass plant response rating (0 to 100 scale) [1, 16]: 0 | Surinam Grass plant response rating [1, 20]: 0 | Plant response rating, Surinam Grass [1, 17]: 10 | Surinam Grass plant response rating [1, 19]: 30 | Corn plant response rating (0 to 100 scale) [2, 16]: 0 | Corn plant response rating [2, 20]: 0 | Plant response rating, Corn [2, 17]: 0 | Corn plant response rating [2, 19]: 10 | Crabgrass, Large plant response rating (0 to 100 scale) [3, 16]: 0 | Crabgrass, Large plant response rating [3, 20]: 0 | Plant response rating, Crabgrass, Large [3, 17]: 90 | Crabgrass, Large plant response rating [3, 19]: 0 | Foxtail, Giant plant response rating (0 to 100 scale) [4, 16]: 10 | Foxtail, Giant plant response rating [4, 20]: 20 | Plant response rating, Foxtail, Giant [4, 17]: 80 | Foxtail, Giant plant response rating [4, 19]: 60 | Lambsquarters plant response rating (0 to 100 scale) [5, 16]: 100 | Lambsquarters plant response rating [5, 20]: 10 | Plant response rating, Lambsquarters [5, 17]: 100 | Lambsquarters plant response rating [5, 19]: 20 | Morningglory plant response rating (0 to 100 scale) [6, 16]: 0 | Morningglory plant response rating [6, 20]: 0 | Plant response rating, Morningglory [6, 17]: 0 | Morningglory plant response rating [6, 19]: 0 | Pigweed plant response rating (0 to 100 scale) [7, 16]: 0 | Pigweed plant response rating [7, 20]: 10 | Plant response rating, Pigweed [7, 17]: 100 | Pigweed plant response rating [7, 19]: 10 | Velvetleaf plant response rating [8, 20]: 0 | Plant response rating, Velvetleaf [8, 17]: 0 | Velvetleaf plant response rating [8, 19]: 10 | Blackgrass plant response rating [9, 20]: 20 | Blackgrass plant response rating [9, 19]: 30 | Wheat plant response rating [10, 20]: 20 | Wheat plant response rating [10, 19]: 30 | Oat, Wild plant response rating [11, 20]: 20 | Oat, Wild plant response rating [11, 19]: 40 | Rice plant response rating [12]: 60 | Sedge, Umbrella plant response rating [13]: 70 | Ducksalad plant response rating [14]: 70 | Barnyardgrass plant response rating [15]: 70

— US20060069132A1, “Azolecarboxamide herbicides” (priority 2004, published 2006)
